Laboratory results from ChEMBL document CHEMBL1201862, “PubChem BioAssay data set” (2004).
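A five-concentration, 48-hour dose response in 96-well plates underlies each endpoint, interpolated linearly between surrounding concentrations. Here, GI50 denotes the concentration required for 50% inhibition of growth.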 Calls of active or inactive are those of the source. No stated cut-off is given here; in the data, active = GI50 up to about 1.1 µM and inactive = higher.

Columns and labels:
Experiment in all cases: growth of human tumour cells (NCI), 48 h
786-0 = test system: 786-0
A549 = test system: A549
ACHN = test system: ACHN
BT-549 = test system: BT-549
CAKI-1 = test system: CAKI-1
CCRF-CEM = test system: CCRF-CEM
COLO 205 = test system: COLO 205
DU-145 = test system: DU-145
EKVX = test system: EKVX
HCC 2998 = test system: HCC 2998
HCT-116 = test system: HCT-116
HCT-15 = test system: HCT-15
HOP-62 = test system: HOP-62
HOP-92 = test system: HOP-92
HT-29 = test system: HT-29
Hs-578T = test system: Hs-578T
K562 = test system: K562
KM12 = test system: KM12
LOX IMVI = test system: LOX IMVI
M14 = test system: M14
MCF7 = test system: MCF7
MDA-MB-231 = test system: MDA-MB-231
MDA-MB-435 = test system: MDA-MB-435
MDA-N = test system: MDA-N
MOLT-4 = test system: MOLT-4
Malme-3M = test system: Malme-3M
NCI-H226 = test system: NCI-H226
NCI-H23 = test system: NCI-H23
NCI-H522 = test system: NCI-H522
NCI/ADR-RES = test system: NCI/ADR-RES
OVCAR-3 = test system: OVCAR-3
OVCAR-4 = test system: OVCAR-4
OVCAR-5 = test system: OVCAR-5
OVCAR-8 = test system: OVCAR-8
PC-3 = test system: PC-3
RPMI-8226 = test system: RPMI-8226
RXF 393 = test system: RXF 393
SF-268 = test system: SF-268
SF-295 = test system: SF-295
SF-539 = test system: SF-539
SK-MEL-28 = test system: SK-MEL-28
SK-MEL-2 = test system: SK-MEL-2
SK-OV-3 = test system: SK-OV-3
SN12C = test system: SN12C
SNB-19 = test system: SNB-19
SNB-75 = test system: SNB-75
SR = test system: SR
SW-620 = test system: SW-620
T47D = test system: T47D
TK-10 = test system: TK-10
U-251 = test system: U-251
UACC-257 = test system: UACC-257
UACC-62 = test system: UACC-62
UO-31 = test system: UO-31

In the case of `Nc1ncnc2c1N=C(c1ccccc1)CC(c1ccccc1)N2` (centres undefined), the GI50 (786-0) is reported as > 100 µM (inactive), the GI50 (A549) is reported as > 100 µM (inactive) and the GI50 (ACHN) is reported as > 100 µM (inactive). For the same compound, the GI50 (BT-549) was > 100 µM (inactive), the GI50 (CAKI-1) was > 100 µM (inactive) and the GI50 (CCRF-CEM) was > 100 µM (inactive). For the same compound, the GI50 (COLO 205) was > 100 µM (inactive), the GI50 (DU-145) was > 100 µM (inactive) and the GI50 (EKVX) was > 100 µM (inactive). The GI50 (HCC 2998) was > 100 µM (inactive), the GI50 (HCT-116) was > 100 µM (inactive) and the GI50 (HCT-15) was greater than 100 µM. For the same compound, the GI50 (HOP-62) was 97.5 µM (inactive), the GI50 (HOP-92) was > 100 µM (inactive) and the GI50 (HT-29) was > 100 µM (inactive). For the same compound, the GI50 (Hs-578T) was 39.4 µM (inactive), the GI50 (K562) was > 100 µM (inactive) and the GI50 (KM12) was > 100 µM (inactive). The GI50 (LOX IMVI) was > 100 µM (inactive), the GI50 (M14) was > 100 µM (inactive) and the GI50 (MCF7) was > 100 µM (inactive). For the same compound, the GI50 (MDA-MB-231) was > 100 µM (inactive), the GI50 (MDA-MB-435) was > 100 µM (inactive) and the GI50 (MDA-N) was > 100 µM (inactive). For the same compound, the GI50 (MOLT-4) was > 100 µM (inactive), the GI50 (Malme-3M) was > 100 µM (inactive) and the GI50 (NCI-H226) was > 100 µM (inactive). For the same compound, the GI50 (NCI-H23) was > 100 µM (inactive), the GI50 (NCI-H522) was > 100 µM (inactive) and the GI50 (NCI/ADR-RES) was 59.2 µM (inactive). For the same compound, the GI50 (OVCAR-3) was > 100 µM (inactive), the GI50 (OVCAR-4) was > 100 µM (inactive) and the GI50 (OVCAR-5) was > 100 µM (inactive). The GI50 (OVCAR-8) was > 100 µM (inactive), the GI50 (PC-3) was > 100 µM (inactive) and the GI50 (RPMI-8226) was > 100 µM (inactive). The GI50 (RXF 393) was > 100 µM (inactive), the GI50 (SF-268) was > 100 µM (inactive) and the GI50 (SF-295) was > 100 µM (inactive). The GI50 (SF-539) was > 100 µM (inactive), the GI50 (SK-MEL-28) was > 100 µM (inactive) and the GI50 (SK-MEL-2) was > 100 µM (inactive). The GI50 (SK-OV-3) was > 100 µM (inactive), the GI50 (SN12C) was > 100 µM (inactive) and the GI50 (SNB-19) was > 100 µM (inactive). For the same compound, the GI50 (SNB-75) was 23.6 µM (inactive), the GI50 (SR) was > 100 µM (inactive) and the GI50 (SW-620) was > 100 µM (inactive). The GI50 (T47D) was > 100 µM (inactive), the GI50 (TK-10) was > 100 µM (inactive) and the GI50 (U-251) was > 100 µM (inactive). The GI50 (UACC-257) was > 100 µM (inactive), the GI50 (UACC-62) was > 100 µM (inactive) and the GI50 (UO-31) was > 100 µM (inactive).
